Here are results for 3 molecules from article PMC11743026, “Cortisol regulates neonatal lung development via Smoothened” (Respiratory Research, 2025).

In assay [1] the target is T1, Smoothened (SMO) (Homo sapiens, UniProt Q99835, Y394F).
T1 construct: purified Y394F SMO
The experiment in a line: pull-down of purified Y394F SMO on biotinylated cholesterol beads. The format is binding.

Assay [2] addresses T2, Smoothened (SMO) (Homo sapiens, UniProt Q99835, L112A).
T2 construct: purified L112A SMO; also the L112A CRD fragment
The experiment in a line: pull-down of purified L112A SMO or CRD on biotinylated cholesterol beads. In kind it is binding.

Assay [3] concerns the target T1, Smoothened (SMO). The experiment in a line: free cortisol competes with biotinylated cholesterol beads for purified Y394F SMO. The format is binding.
In assay [4] the target is T3, Smoothened (SMO) (Homo sapiens, UniProt Q99835).
T3 construct: full-length SMO expressed in HeLa cells
In words: Asp-evoked current in HeLa cells expressing WT SMO; effect lost with L112A. In kind it is cell-based.

T1 sequence (Q99835 28-787 Y394F): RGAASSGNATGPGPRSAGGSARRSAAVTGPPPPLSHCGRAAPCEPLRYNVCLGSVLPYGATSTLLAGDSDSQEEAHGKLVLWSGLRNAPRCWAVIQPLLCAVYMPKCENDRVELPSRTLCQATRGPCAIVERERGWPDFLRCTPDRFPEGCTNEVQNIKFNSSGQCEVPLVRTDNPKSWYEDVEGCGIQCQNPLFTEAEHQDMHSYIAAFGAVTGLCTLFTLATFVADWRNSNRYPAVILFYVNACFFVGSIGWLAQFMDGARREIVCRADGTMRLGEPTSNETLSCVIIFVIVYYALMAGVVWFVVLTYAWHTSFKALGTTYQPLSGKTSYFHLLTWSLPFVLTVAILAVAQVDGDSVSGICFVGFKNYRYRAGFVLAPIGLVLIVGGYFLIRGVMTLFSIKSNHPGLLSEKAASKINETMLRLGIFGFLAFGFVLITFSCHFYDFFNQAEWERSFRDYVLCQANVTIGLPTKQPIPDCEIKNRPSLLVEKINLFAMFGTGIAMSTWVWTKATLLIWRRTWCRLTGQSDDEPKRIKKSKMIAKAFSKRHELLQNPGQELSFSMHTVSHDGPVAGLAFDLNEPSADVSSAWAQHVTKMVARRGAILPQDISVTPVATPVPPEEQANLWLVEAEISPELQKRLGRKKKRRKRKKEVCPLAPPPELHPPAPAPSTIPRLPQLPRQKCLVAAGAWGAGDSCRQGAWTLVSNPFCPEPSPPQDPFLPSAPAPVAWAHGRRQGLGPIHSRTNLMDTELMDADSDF
T2 sequence (Q99835 28-787 L112A): as the sequence (Q99835 28-787 Y394F) above, with L85A, F367Y counted along it
T3 sequence (Q99835 28-787): as the sequence (Q99835 28-787 Y394F) above, with F367Y counted along it

Regarding `CC(C)CCC[C@@H](C)[C@H]1CC[C@H]2[C@@H]3CC=C4C[C@@H](O)CC[C@]4(C)[C@H]3CC[C@]12C` [Chol, cholesterol], in assay [1], the “pull-down of purified Y394F SMO on biotinylated cholesterol beads” value is given as “mutation of the Y394 to F394 did not change CB binding to the SMO”. Also, in assay [2], the “pull-down of purified L112A SMO or CRD on biotinylated cholesterol beads” value was “The CB remained binding to the purified WT and L112A SMO”.

On to `C[C@]12CCC(=O)C=C1CC[C@@H]1[C@@H]2[C@@H](O)C[C@@]2(C)[C@H]1CC[C@]2(O)C(=O)CO` [Cort, cortisol], for which the “free cortisol competes with biotinylated cholesterol beads for purified Y394F SM” value in assay [3] is reported as “cortisol remained inhibiting the CB binding to the mutated SMO in a dose-dependent manner”.

With `C[C@]12C[C@H](O)[C@H]3[C@@H](CCC4=CC(=O)CC[C@@]43C)[C@@H]1CC[C@@H]2C(=O)CO` [corticosterone], in assay [4], the “Asp-evoked current in HeLa cells expressing WT SMO; effect lost with L112A” value was “The corticosterone inhibition was not observed in the L112A mutant SMO cells”.
